Data: patent US12226390B2, “Cannabinoids compositions with polyunsaturated fatty acid monoglycerides, methods and uses thereof” (SCF PHARMA INC., priority 2019, dated 2025)
In brackets after ≈: the same amount, converted by molar mass.

Key:
[1] = CBD solubility in carrier oils; format: physicochemical; conditions: for solubility: oil or lipid
[2] = 400 mg CBD in corn oil, orally administered; cited from earlier work
[3] = Comparative human absorption cross-over study of CBD in compound of formula (IV) versus MCT oil; format: in vivo
Method: 54 mg of cannabidiol (CBD) was dissolved in 2.5 g of compound of formula (IV) to give a clear solution. 1.16 g of the mixture (25 mg CBD) was encapsulated in two (2) hard gel capsules (size 00) for absorption study. A pilot absorption study was conducted in one volunteer. The two (2) hard gel capsules were swallowed with a glass of water by the volunteer fasted for 10 h. 200 ul of blood was collected by a lancet in a heparinised microtube at T=0, 1, 2, 3, 4, 5, 6, 7 and 8 h. The plasma was analyzed by HPLC/MS/MS to quantify the CBD. A comparative study was conducted with the same amount of CBD but with MCT oil (medium-chain triglycerides oil) instead of compound of formula (IV).

COX-2 = biological target: T1, COX-2 (Homo sapiens, UniProt P35354); conditions: native acid form; cited from earlier work
T1 sequence (P35354 18-604): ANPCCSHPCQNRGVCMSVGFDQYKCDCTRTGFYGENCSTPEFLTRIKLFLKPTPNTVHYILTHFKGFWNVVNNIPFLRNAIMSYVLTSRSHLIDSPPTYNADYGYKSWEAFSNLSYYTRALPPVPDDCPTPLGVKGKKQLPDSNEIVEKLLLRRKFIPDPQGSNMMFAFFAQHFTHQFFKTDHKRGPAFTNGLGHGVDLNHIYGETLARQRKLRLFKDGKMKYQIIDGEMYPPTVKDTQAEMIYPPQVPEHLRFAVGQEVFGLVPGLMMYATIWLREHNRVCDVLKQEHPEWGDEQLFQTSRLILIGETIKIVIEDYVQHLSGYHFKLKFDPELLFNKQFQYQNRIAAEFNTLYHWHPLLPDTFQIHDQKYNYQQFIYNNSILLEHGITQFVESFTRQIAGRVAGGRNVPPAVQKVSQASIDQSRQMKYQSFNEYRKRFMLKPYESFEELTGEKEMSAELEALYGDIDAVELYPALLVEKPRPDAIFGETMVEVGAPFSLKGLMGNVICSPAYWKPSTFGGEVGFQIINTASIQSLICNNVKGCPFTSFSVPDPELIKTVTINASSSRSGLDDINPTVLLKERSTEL

[4] = Human absorption study of composition 1 (cannabinoid extract containing CBDA in compound of formula IV and EPA fish oil); format: in vivo
Method: Cannabis dried flowers (7 g) was extracted with ethanol (100 ml) for 72 h at room temperature. The flowers was filtered and the ethanol was removed under vacuum without heating to give the cannabinoid crude extract (1.9 g) containing 85% CBDA and 4% THCA. The crude extract (315 mg) was dissolved in a mixture of compound of formula (IV) and EPA concentrated ethyl ester fish oil (3.5 g) to give composition 1.
2.47 g of composition 1 was encapsulated in four (4) hard gel capsules (size 00) for absorption study. A pilot absorption study was conducted in one volunteer. The four (4) hard gel capsules were swallowed with a glass of water by the volunteer fasted for 10 h. 200 ul of blood was collected by a lancet in a heparinised microtube at T=0, 0.5, 1, 1.5, 2, 2.5, 3, 3.5, 4, 4.5, and 6.5 h. The plasma was analyzed by HPLC/MS/MS to quantify the CBDA.

[5] = stated by Health Canada; cited from earlier work
[6] = native acid form; cited from earlier work

## C=C(C)[C@@H]1CCC(C)=C[C@H]1c1c(O)cc(CCCCC)cc1O [CBD, Cannabidiol]
[1]; formulation containing compound of formula IV and EPA fish oil versus corn oil
  increase of solubility: 33%
[1]; in a formulation containing compound of formula IV and EPA fish oil
  solubility: 400 mg/mL (≈ 1270 mM)
[1]; in corn oil
  solubility: ~300 mg/mL (≈ 954 mM)
[2]
  Cmax in plasma: 181 ng/mL
[3]; 25 mg CBD oral in hard gel capsules, one volunteer fasted 10 h, plasma 0-8 h, FIG. 1
  absorption and bioavailability of CBD, compound of formula (IV) over MCT oil: superiority
[3]; human, plasma, formulated in compound of formula IV, low dose of 25 mg, oral, read-out: CBD more bioavailable than in MCT oil
  bioavailability: 200%

## C=C(C)[C@@H]1CCC(C)=C[C@H]1c1c(O)cc(CCCCC)c(C(=O)O)c1O [CBDA, Cannabidiolic Acid]
COX-2
  COX-2 inhibition: COX-2 inhibitor
[4]; 170 mg CBDA in compound of formula IV versus 400 mg CBD in corn oil (half of the dose)
  increase of the Cmax: 500%
[4]; human, plasma, cannabinoid extract containing 170 mg of CBDA in compound of formula IV, oral, one fasted volunteer
  Cmax: 1000 ng/mL

## CCCCCc1cc(O)c2c(c1)OC(C)(C)[C@@H]1CCC(C)=C[C@@H]21 [THC, Tetrahydrocannabinol]
[5]
  oral bioavailability: 10%

## CCCCCc1cc2c(c(O)c1C(=O)O)[C@@H]1C=C(C)CC[C@H]1C(C)(C)O2 [THCA, Tetrahydrocannabinolic acid]
[6]
  psychotropic effect: no psychotropic effect
